# What was measured:
# Type in all cases: functional
# Staphylococcus aureus [1] = assay: Antibacterial activity against linezolid and methicillin-resistant Staphylococcus aureus assessed as inhibition of bacterial growth
# Enterococcus = assay: Antibacterial activity against linezolid and vancomycin-resistant Enterococcus assessed as inhibition of bacterial growth
# Escherichia coli [2] = assay: Antibacterial activity against Escherichia coli assessed as inhibition of bacterial growth incubated for 18 hrs by CLSI protocol based method
# Pseudomonas aeruginosa [3] = assay: Antibacterial activity against Pseudomonas aeruginosa assessed as inhibition of bacterial growth incubated for 18 hrs by CLSI protocol based method
# Staphylococcus aureus [4] = assay: Antibacterial activity against Staphylococcus aureus NCIM 5257 assessed as inhibition of bacterial growth incubated for 24 hrs by serial broth dilution method
# Bacillus subtilis [5] = assay: Antibacterial activity against Bacillus subtilis NCIM 2097 assessed as inhibition of bacterial growth incubated for 24 hrs by serial broth dilution method
# Enterococcus faecalis [6] = assay: Antibacterial activity against Streptococcus faecalis NCIM 2080 assessed as inhibition of bacterial growth incubated for 24 hrs by serial dilution method
# Escherichia coli [7] = assay: Antibacterial activity against Escherichia coli NCIM 2065 assessed as inhibition of bacterial growth incubated for 24 hrs by serial dilution method
# Klebsiella pneumoniae = assay: Antibacterial activity against Klebsiella pneumoniae NCIM 5289 assessed as inhibition of bacterial growth incubated for 24 hrs by serial dilution method
# Pseudomonas aeruginosa [8] = assay: Antibacterial activity against Pseudomonas aeruginosa NCIM 5210 assessed as inhibition of bacterial growth incubated for 24 hrs by serial dilution method
# Candida albicans [9] = assay: Antifungal activity against Candida albicans NCIM 3628 assessed as inhibition of fungal growth incubated for 48 hrs by serial dilution method
# Aspergillus niger = assay: Antifungal activity against Aspergillus niger NCIM 1317 assessed as inhibition of fungal growth incubated for 48 hrs by serial dilution method
# Escherichia coli [10] = assay: Antibacterial activity against Escherichia coli assessed as zone of inhibition at 100 ug/ml; details: read-out: IZ
# Escherichia coli [11] = assay: Antimicrobial activity against Escherichia coli assessed as inhibition zone at 200 ug/ml incubated for 24 hrs by disk diffusion method; details: read-out: IZ
# Bacillus subtilis [12] = assay: Antimicrobial activity against Bacillus subtilis assessed as inhibition zone at 200 ug/ml incubated for 24 hrs by disk diffusion method; details: read-out: IZ
# Fusarium oxysporum = assay: Antimicrobial activity against Fusarium oxysporum assessed as inhibition zone at 200 ug/ml incubated for 24 hrs by disk diffusion method; details: read-out: IZ
# Listeria monocytogenes = assay: Antibacterial activity against Listeria monocytogenes assessed as inhibition of bacterial growth by CLSI protocol based microdilution assay
# Staphylococcus aureus [13] = assay: Antibacterial activity against Staphylococcus aureus assessed as inhibition of bacterial growth by CLSI protocol based microdilution assay
# Enterococcus faecalis [14] = assay: Antibacterial activity against Enterococcus faecalis ATCC 51299 assessed as inhibition of bacterial growth by CLSI protocol based microdilution assay
# Enterococcus faecalis [15] = assay: Antibacterial activity against Enterococcus faecalis ATCC 29212 assessed as inhibition of bacterial growth by CLSI protocol based microdilution assay
# Pseudomonas aeruginosa [16] = assay: Antibacterial activity against Pseudomonas aeruginosa assessed as inhibition of bacterial growth by CLSI protocol based microdilution assay
# Bacillus subtilis [17] = assay: Antibacterial activity against Bacillus subtilis assessed as inhibition of bacterial growth measured per 100 uL incubated for 24 hrs by agar well diffusion method
# Staphylococcus aureus [18] = assay: Antibacterial activity against Staphylococcus aureus assessed as inhibition of bacterial growth measured per 100 uL incubated for 24 hrs by agar well diffusion method
# Escherichia coli [19] = assay: Antibacterial activity against Escherichia coli assessed as inhibition of bacterial growth measured per 100 uL incubated for 24 hrs by agar well diffusion method
# Pseudomonas aeruginosa [20] = assay: Antibacterial activity against Pseudomonas aeruginosa assessed as inhibition of bacterial growth measured per 100 uL incubated for 24 hrs by agar well diffusion method
# Candida albicans [21] = assay: Antifungal activity against Candida albicans assessed as inhibition of fungal growth incubated measured per 100 uL incubated for 24 hrs by agar well diffusion method
# Saccharomyces cerevisiae = assay: Antifungal activity against Saccharomyces cerevisiae assessed as inhibition of fungal growth incubated measured per 100 uL incubated for 24 hrs by agar well diffusion method
# Bacillus subtilis [22] = assay: Antibacterial activity against Bacillus subtilis assessed as zone of inhibition at 100 ug/ml; details: read-out: IZ
compound,measurement,setting,value
O=C(NC[C@H]1CN(c2ccc(N3CCOCC3)c(F)c2)C(=O)O1)C(Cl)Cl,MIC,Staphylococcus aureus [1],0.25 µg/mL
same,MIC,Enterococcus,0.25 µg/mL
Nc1ccc(C#CC#Cc2ccc(N3C[C@@H](C(=O)NO)OC3=O)cc2)cc1,MIC,Escherichia coli [2],0.02 µg/mL
same,MIC,Pseudomonas aeruginosa [3],> 10 µg/mL
O=C(/C=C/c1ccccc1F)c1ccc(-c2ccc(N3C[C@H](CO)OC3=O)cc2)cc1,MIC,Staphylococcus aureus [4],3.12 µg/mL
same,MIC,Bacillus subtilis [5],3.12 µg/mL
same,MIC,Enterococcus faecalis [6],3.12 µg/mL
same,MIC,Escherichia coli [7],3.12 µg/mL
same,MIC,Klebsiella pneumoniae,3.12 µg/mL
same,MIC,Pseudomonas aeruginosa [8],3.12 µg/mL
same,MIC,Candida albicans [9],12.5 µg/mL
same,MIC,Aspergillus niger,12.5 µg/mL
O=C(NO)[C@@H]1CN(c2ccc(C#CC#Cc3ccccc3)cc2)C(=O)O1,MIC,Escherichia coli [2],0.12 µg/mL
same,MIC,Pseudomonas aeruginosa [3],> 10 µg/mL
O=C(CCl)NC[C@H]1CN(c2ccc(N3CCOCC3)c(F)c2)C(=O)O1,MIC,Staphylococcus aureus [1],0.13 µg/mL
same,MIC,Enterococcus,0.13 µg/mL
CCCN1C(=O)C(N2C(=O)OCC2Cc2ccc(/N=C/c3ccccc3)cc2)C1c1ccc(Cl)cc1Cl (stereo unspecified),zone of inhibition at 100 µg/mL,Escherichia coli [10],24 mm
O=C(/C=C/c1ccc(F)cc1)c1ccc(-c2ccc(N3C[C@H](CO)OC3=O)cc2)cc1,MIC,Staphylococcus aureus [4],3.12 µg/mL
same,MIC,Bacillus subtilis [5],3.12 µg/mL
same,MIC,Enterococcus faecalis [6],3.12 µg/mL
same,MIC,Escherichia coli [7],3.12 µg/mL
same,MIC,Klebsiella pneumoniae,3.12 µg/mL
same,MIC,Pseudomonas aeruginosa [8],3.12 µg/mL
same,MIC,Candida albicans [9],12.5 µg/mL
same,MIC,Aspergillus niger,12.5 µg/mL
COc1ccc(/C=C2\OC3(COC(=O)N3)N(CCCNc3ccnc4cc(Cl)ccc34)C2=O)cc1 (stereo unspecified),zone of inhibition at 200 µg/mL,Escherichia coli [11],11 mm
same,zone of inhibition at 200 µg/mL,Bacillus subtilis [12],10 mm
same,zone of inhibition at 200 µg/mL,Fusarium oxysporum,9 mm
O=C(NO)[C@@H]1CN(c2ccc(C#Cc3ccccc3)cc2)C(=O)O1,MIC,Escherichia coli [2],0.625 µg/mL
same,MIC,Pseudomonas aeruginosa [3],> 10 µg/mL
OC(Cn1cncn1)(Cn1cncn1)c1ccc(F)cc1F [FLUCONAZOLE],zone of inhibition at 200 µg/mL,Fusarium oxysporum,23 mm
O=C1N[C@@H](Cc2ccc(NC(=S)Nc3ccc(Br)cc3)cc2)CO1,MIC,Listeria monocytogenes,25 µg/mL
same,MIC,Staphylococcus aureus [13],25 µg/mL
same,MIC,Enterococcus faecalis [14],25 µg/mL
same,MIC,Enterococcus faecalis [15],25 µg/mL
COc1ccc(NC(=S)Nc2ccc(C[C@H]3COC(=O)N3)cc2)cc1,MIC,Pseudomonas aeruginosa [16],50 µg/mL
O=C1NC(Cc2ccc(Nc3nc(-c4ccc(-c5ccccc5)cc4)cs3)cc2)CO1 (stereo unspecified),MIC,Bacillus subtilis [17],6.25 µg
same,MIC,Staphylococcus aureus [18],6.25 µg
same,MIC,Escherichia coli [19],12.5 µg
same,MIC,Pseudomonas aeruginosa [20],12.5 µg
same,MIC,Candida albicans [21],12.5 µg
same,MIC,Saccharomyces cerevisiae,12.5 µg
CS(=O)(=O)CCCOc1ccc(C#Cc2ccc(N3C[C@@H](C(=O)NO)OC3=O)cc2)cc1,MIC,Escherichia coli [2],6.25 µg/mL
same,MIC,Pseudomonas aeruginosa [3],> 10 µg/mL
O=C(N[C@H](CO)[C@H](O)c1ccc([N+](=O)[O-])cc1)C(Cl)Cl [CHLORAMPHENICOL],zone of inhibition at 100 µg/mL,Escherichia coli [10],38 mm
same,zone of inhibition at 100 µg/mL,Bacillus subtilis [22],37 mm
same,MIC,Pseudomonas aeruginosa [16],50 µg/mL
same,MIC,Listeria monocytogenes,50 µg/mL
same,MIC,Staphylococcus aureus [13],50 µg/mL
same,MIC,Enterococcus faecalis [14],50 µg/mL
same,MIC,Enterococcus faecalis [15],50 µg/mL

# — ChEMBL document CHEMBL5233274, “Current Landscape and Future Perspective of Oxazolidinone Scaffolds Containing Antibacterial Drugs” (J Med Chem, 2021)
